According to US20250332173A1, “COMPOUNDS AND METHODS FOR MODULATING NUCLEIC ACID SPLICING” (REMIX THERAPEUTICS INC., priority 2021, published 2025):
Read-outs that look alike come from different tables or passages of the source.

Experiments:
HTT mRNA = assay: RT-qPCR splicing assay, HTT canonical junction (CJ) and alternative junction (AJ) mRNA; type: cell-based, human; settings: Homo sapiens; for AC50: increase in HTT alternative junction (AJ) mRNA, read-out: HTT AJ AC50
Method in brief: (§1)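 Splicing switches were read by TaqMan RT-qPCR on lysates, quantifying exon-exon junctions of the canonical and alternative-exon isoforms. Lysates came from K562 (GAPDH/GUSB reference) or A673 (PPIA reference) cells exposed 24 h to compound in 11 threefold steps from 10 uM, with DMSO ≤0.25%.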

Target C = assay: HiBiT protein abundance assay, Target C HiBiT K562 cell line; type: cell-based; settings: Homo sapiens; HiBiT lytic detection, modified K562 cells, 24 hours, top dose 10 μM; read-out: Effect on protein abundance, Target C (IC50)
Method in brief: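 Protein abundance was read by Nano-Glo HiBiT lytic luminescence after 24 h compound exposure (10-point, threefold series from 10 μM final) of HiBiT knock-in K562 cells. Parental K562 served as baseline; the 50%-abundance concentration was interpolated from a four-parameter logistic fit.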

MYB mRNA = assay: RT-qPCR splicing assay, MYB canonical junction (CJ) and alternative junction (AJ) mRNA; type: cell-based, human; settings: Homo sapiens; for AC50: increase in MYB alternative junction (AJ) mRNA, read-out: MYB AJ AC50
Method in brief: as §1

SMN2 mRNA = assay: RT-qPCR splicing assay, SMN2 canonical junction (CJ) mRNA; type: cell-based, human; settings: Homo sapiens; canonical junction qPCR panel, Table 5; read-out: SMN2 (decrease in CJ mRNA levels, IC50)
Method in brief: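 K562/A673 cells, 11-pt 3-fold compound titration from 10 uM final, DMSO ≤0.25%, 24 h 37 °C 5% CO2; lyse (DNase I or Igepal/Tris buffer pH 7.4); RT-qPCR for CJ isoform vs housekeeping gene (GAPDH/GUSB/PPIA).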

[1] = decrease in HTT canonical junction (CJ) mRNA, RT-qPCR, read-out: HTT CJ IC50
[2] = canonical junction qPCR panel, Table 5, read-out: HTT (decrease in CJ mRNA levels, IC50)
[3] = canonical junction qPCR panel, Table 5, read-out: MYB (decrease in CJ mRNA levels, IC50)
[4] = decrease in MYB canonical junction (CJ) mRNA, RT-qPCR, read-out: MYB CJ IC50

| SMILES | IC50 (HTT mRNA; [1]) | AC50 (HTT mRNA; RT-qPCR) | IC50 (HTT mRNA; [2]) | IC50 (Target C) | IC50 (MYB mRNA; [3]) | IC50 (MYB mRNA; [4]) | AC50 (MYB mRNA; RT-qPCR) | IC50 (SMN2 mRNA) |
| --- | --- | --- | --- | --- | --- | --- | --- | --- |
| Cc1cn2nc(-c3ccc4c(=O)n([C@@H]5CCN(C)[C@H](C)C5)ncc4n3)cc(C)c2n1 [Compound 1527] | 0.1 to 1 µM | 0.1 to 1 µM | 0.1 to 1 µM | 0.1 to 1 µM | 0.1 to 1 µM | 0.1 to 1 µM | 0.1 to 1 µM | < 0.1 µM |
| Cn1cc2cc(-n3cnc4ccc(N5CCNCC5)cc4c3=O)cc(F)c2n1 [Compound 2196] | > 10 µM | > 10 µM | > 10 µM | > 10 µM | > 10 µM | > 10 µM | > 10 µM | > 10 µM |
| CN1CCC(Nc2ccc3ncn(-c4ccc5nn(C)cc5c4)c(=O)c3c2)CC1 [Compound 2171] | > 10 µM | > 10 µM | > 10 µM | > 10 µM | > 10 µM | > 10 µM | > 10 µM | > 10 µM |
| Cc1cc(-c2ccc3c(=O)[nH]c(N4CCNCC4)nc3c2)cc2cn(C)nc12 [Compound 2211] | > 10 µM | > 10 µM | > 10 µM | > 10 µM | > 10 µM | > 10 µM | > 10 µM | > 10 µM |
| CN(c1ccc2ncn(-c3cc(F)c4nn(C)cc4c3)c(=O)c2c1)C1CCNCC1 [Compound 2198] | > 10 µM | > 10 µM | > 10 µM | > 10 µM | > 10 µM | > 10 µM | > 10 µM | > 10 µM |
| Cc1cc(-c2ccc3ncn(C4CCNCC4)c(=O)c3c2)cc2cn(C)nc12 [Compound 2169] | > 10 µM | > 10 µM | > 10 µM | > 10 µM | > 10 µM | > 10 µM | > 10 µM | > 10 µM |
| Cc1cc(-c2nc3cc(N4CCNCC4)ccc3c(=O)[nH]2)cc2cn(C)nc12 [Compound 2213] | > 10 µM | > 10 µM | > 10 µM | > 10 µM | > 10 µM | > 10 µM | > 10 µM | > 10 µM |
| Cc1cc(-c2ccc3c(=O)[nH]c(N4CCN(C)CC4)nc3c2)cc2cn(C)nc12 [Compound 2212] | 1 to 10 µM | 1 to 10 µM | 1 to 10 µM | > 10 µM | 1 to 10 µM | 1 to 10 µM | 1 to 10 µM | 1 to 10 µM |
| Cc1cn2nc(-c3ccc4c(=O)n(C5CCN(CC6CC6)C6(CC6)C5)ncc4n3)cc(C)c2n1 (stereo not drawn) [Compound 1543, 6-[4-(cyclopropylmethyl)-4-azaspiro[2.5]octan-7-yl]-2-(2,8-dimethylimidazo[1,2-b]pyridazin-6-yl)pyrido[2,3-d]pyridazin-5-one] | < 0.1 µM | < 0.1 µM | < 0.1 µM | 0.1 to 1 µM | 0.1 to 1 µM | 0.1 to 1 µM | 0.1 to 1 µM | < 0.1 µM |
| Cc1c(O)c(-c2ncc3c(=O)n([C@@H]4CC[C@@H](N)C4)ccc3n2)cc2cn(C)nc12 [Compound 1476, 6-[(1R,3R)-3-aminocyclopentyl]-2-(6-hydroxy-2,7-dimethyl-indazol-5-yl)pyrido[4,3-d]pyrimidin-5-one] | 1 to 10 µM | 0.1 to 1 µM | 0.1 to 1 µM | 1 to 10 µM | 0.1 to 1 µM | 0.1 to 1 µM | 0.1 to 1 µM | < 0.1 µM |
| Cc1cn2cc(-n3cnc4ccc(N(C)C5CCNCC5)cc4c3=O)cc(F)c2n1 [Compound 2200] | > 10 µM | > 10 µM | > 10 µM | > 10 µM | > 10 µM | > 10 µM | > 10 µM | > 10 µM |
| Cc1cn2nc(-c3ccc4c(=O)n([C@H]5CCN(C)[C@@H](C)C5)ncc4n3)cc(C)c2n1 [Compound 1528, 2-(2,8-dimethylimidazo[1,2-b]pyridazin-6-yl)-6-(1,2-dimethyl-4-piperidyl)pyrido[2,3-d]pyridazin-5-one] | 0.1 to 1 µM | 0.1 to 1 µM | 0.1 to 1 µM | 0.1 to 1 µM | 0.1 to 1 µM | 0.1 to 1 µM | 0.1 to 1 µM | 0.1 to 1 µM |
| Cn1cc2cc(-c3ncc4c(=O)n(C56CCC(N)(CC5)C6)ccc4n3)c(O)c(F)c2n1 [Compound 1468] | 0.1 to 1 µM | 0.1 to 1 µM | 0.1 to 1 µM | 0.1 to 1 µM | < 0.1 µM | < 0.1 µM | < 0.1 µM | < 0.1 µM |
| CN1CCC(N(C)c2ccc3ncn(-c4cc(F)c5nn(C)cc5c4)c(=O)c3c2)CC1 [Compound 2199] | > 10 µM | > 10 µM | > 10 µM | > 10 µM | > 10 µM | > 10 µM | > 10 µM | > 10 µM |
| Cc1cn2cc(-n3cnc4ccc(N5CCNCC5)cc4c3=O)cc(F)c2n1 [Compound 2195] | > 10 µM | > 10 µM | > 10 µM | > 10 µM | > 10 µM | > 10 µM | > 10 µM | > 10 µM |
| COc1cc(-c2ccc3c(=O)n([C@H]4CCN[C@@H](C)C4)ccc3n2)nn2cc(C)nc12 [Compound 1519, 2-(8-methoxy-2-methyl-imidazo[1,2-b]pyridazin-6-yl)-6-[(2S,4S)-2-methyl-4-piperidyl]-1,6-naphthyridin-5-one] | 0.1 to 1 µM | < 0.1 µM | < 0.1 µM | < 0.1 µM | 0.1 to 1 µM | 0.1 to 1 µM | 0.1 to 1 µM | < 0.1 µM |
| CNC12CCC(n3ccc4nc(-c5cc6cn(C)nc6c(C)c5O)ncc4c3=O)(CC1)C2 [Compound 1479] | 1 to 10 µM | 1 to 10 µM | 1 to 10 µM | 1 to 10 µM | < 0.1 µM | 0.1 to 1 µM | < 0.1 µM | < 0.1 µM |
| Cc1cc(-c2ccc3ncn(C4CCN(C)CC4)c(=O)c3c2)cc2cn(C)nc12 [Compound 2170] | > 10 µM | > 10 µM | > 10 µM | > 10 µM | > 10 µM | > 10 µM | > 10 µM | > 10 µM |
| CCN1CC[C@@H](n2ncc3nc(-c4cc(C)c5nc(C)cn5n4)ccc3c2=O)CC12CC2 [Compound 1530] | < 0.1 µM | < 0.1 µM | < 0.1 µM | < 0.1 µM | < 0.1 µM | < 0.1 µM | < 0.1 µM | < 0.1 µM |
| Cc1cn2nc(-c3ccc4c(=O)n([C@@H]5CCNC6(CCC6)C5)ncc4n3)cc(C)c2n1 [Compound 1545, 6-[(8R)-5-azaspiro[3.5]nonan-8-yl]-2-(2,8-dimethylimidazo[1,2-b]pyridazin-6-yl)pyrido[2,3-d]pyridazin-5-one] | < 0.1 µM | < 0.1 µM | < 0.1 µM | < 0.1 µM | 0.1 to 1 µM | 0.1 to 1 µM | 0.1 to 1 µM | < 0.1 µM |
| Cc1cn2nc(-c3ccc4c(=O)n([C@H]5CCN(C)C6(CC6)C5)ncc4n3)cc(C)c2n1 [Compound 1533] | 0.1 to 1 µM | < 0.1 µM | < 0.1 µM | 0.1 to 1 µM | 0.1 to 1 µM | 0.1 to 1 µM | 0.1 to 1 µM | < 0.1 µM |
